Source: patent US20040071783A1, “Methods and apparatus for particle formation” (priority 1998, published 2004)

Legend:
Crystallinity by XRPD = format: physicochemical; details: XRPD pattern
[1] = Particle size analysis using the Aerosizer/Aerodisperser system; format: physicochemical; details: particle size distribution
Experimental: Particle size analysis of the product was carried out using the Aerosizer/Aerodisperser system (API, USA).

[2] = SEM, in comparison

SMILES: CC(C(=O)O)c1cccc(C(=O)c2ccccc2)c1 (centres unmarked) [Example 4, ketoprofen]
- crystallinity (Crystallinity by XRPD): confirmed its crystallinity

SMILES: CC(C)Cc1ccc(C(C)C(=O)O)cc1 (centres unmarked) [Example 2, ibuprofen]
- SIZE, 5% UNDER [1]: 5.815 micron
- SIZE, 10% UNDER [1]: 7.327 micron
- SIZE, 15% UNDER [1]: 8.537 micron
- SIZE, 20% UNDER [1]: 9.612 micron
- SIZE, 25% UNDER [1]: 10.62 micron
- SIZE, 30% UNDER [1]: 11.57 micron
- SIZE, 35% UNDER [1]: 12.49 micron
- SIZE, 40% UNDER [1]: 13.38 micron
- SIZE, 45% UNDER [1]: 14.26 micron
- SIZE, 50% UNDER [1]: 15.17 micron
- SIZE, 55% UNDER [1]: 16.10 micron
- SIZE, 60% UNDER [1]: 17.06 micron
- SIZE, 65% UNDER [1]: 18.06 micron
- SIZE, 70% UNDER [1]: 19.10 micron
- SIZE, 75% UNDER [1]: 20.20 micron
- SIZE, 80% UNDER [1]: 21.41 micron
- SIZE, 85% UNDER [1]: 22.79 micron
- SIZE, 90% UNDER [1]: 24.42 micron
- SIZE, 95% UNDER [1]: 26.78 micron

SMILES: O=C(O)c1ccccc1O [Example 3b, salicylic acid]
- crystallinity (Crystallinity by XRPD): crystalline in form

SMILES: CC(C)Cc1ccc(C(C)C(=O)O)cc1 (centres unmarked) [Example 1c, ibuprofen]
- SIZE, 5% UNDER [1]: 3.762 micron
- SIZE, 10% UNDER [1]: 4.462 micron
- SIZE, 15% UNDER [1]: 5.018 micron
- SIZE, 20% UNDER [1]: 5.518 micron
- SIZE, 25% UNDER [1]: 5.999 micron
- SIZE, 30% UNDER [1]: 6.479 micron
- SIZE, 35% UNDER [1]: 6.966 micron
- SIZE, 40% UNDER [1]: 7.471 micron
- SIZE, 45% UNDER [1]: 8.004 micron
- SIZE, 50% UNDER [1]: 8.572 micron
- SIZE, 55% UNDER [1]: 9.186 micron
- SIZE, 60% UNDER [1]: 9.849 micron
- SIZE, 65% UNDER [1]: 10.55 micron
- SIZE, 70% UNDER [1]: 11.28 micron
- SIZE, 75% UNDER [1]: 12.06 micron
- SIZE, 80% UNDER [1]: 12.92 micron
- SIZE, 85% UNDER [1]: 13.88 micron
- SIZE, 90% UNDER [1]: 14.96 micron
- SIZE, 95% UNDER [1]: 16.35 micron

SMILES: O=C(O)c1cccnc1 [Example 5b, nicotinic acid]
- particle size and morphology [2]: comparable particle size and morphology to that of the product of Example 5a

SMILES: CC(C)Cc1ccc(C(C)C(=O)O)cc1 (centres unmarked) [Example 1a, ibuprofen]
- SIZE, 5% UNDER [1]: 9.241 micron
- SIZE, 10% UNDER [1]: 11.68 micron
- SIZE, 15% UNDER [1]: 13.57 micron
- SIZE, 20% UNDER [1]: 15.21 micron
- SIZE, 25% UNDER [1]: 16.74 micron
- SIZE, 30% UNDER [1]: 18.21 micron
- SIZE, 35% UNDER [1]: 19.62 micron
- SIZE, 40% UNDER [1]: 20.99 micron
- SIZE, 45% UNDER [1]: 22.30 micron
- SIZE, 50% UNDER [1]: 23.58 micron
- SIZE, 55% UNDER [1]: 24.87 micron
- SIZE, 60% UNDER [1]: 26.16 micron
- SIZE, 65% UNDER [1]: 27.48 micron
- SIZE, 70% UNDER [1]: 28.83 micron
- SIZE, 75% UNDER [1]: 30.25 micron
- SIZE, 80% UNDER [1]: 31.76 micron
- SIZE, 85% UNDER [1]: 33.44 micron
- SIZE, 90% UNDER [1]: 35.44 micron
- SIZE, 95% UNDER [1]: 38.65 micron

SMILES: O=C(O)c1ccccc1O [Example 3a, salicylic acid]
- crystallinity (Crystallinity by XRPD): crystalline

SMILES: CC(C)Cc1ccc(C(C)C(=O)O)cc1 (centres unmarked) [Example 1b, ibuprofen]
- SIZE, 5% UNDER [1]: 5.920 micron
- SIZE, 10% UNDER [1]: 7.411 micron
- SIZE, 15% UNDER [1]: 8.631 micron
- SIZE, 20% UNDER [1]: 9.720 micron
- SIZE, 25% UNDER [1]: 10.75 micron
- SIZE, 30% UNDER [1]: 11.72 micron
- SIZE, 35% UNDER [1]: 12.66 micron
- SIZE, 40% UNDER [1]: 13.56 micron
- SIZE, 45% UNDER [1]: 14.43 micron
- SIZE, 50% UNDER [1]: 15.30 micron
- SIZE, 55% UNDER [1]: 16.18 micron
- SIZE, 60% UNDER [1]: 17.07 micron
- SIZE, 65% UNDER [1]: 17.99 micron
- SIZE, 70% UNDER [1]: 18.94 micron
- SIZE, 75% UNDER [1]: 19.95 micron
- SIZE, 80% UNDER [1]: 21.05 micron
- SIZE, 85% UNDER [1]: 22.25 micron
- SIZE, 90% UNDER [1]: 23.67 micron
- SIZE, 95% UNDER [1]: 25.84 micron
